Measured values as given in patent publication US5972883A, “Method for the treatment of neurodegenerative diseases by administering VIP, an analogue, fragment or a conjugate thereof” (Yeda Research and Development Co. Ltd., priority 1993, dated 1999).
“And” between values parts separate entries of the source, which are not always exact repeats. Equal values may be shown once. “Also recorded” adds a separate entry of the source.

Legend:
[1] = system: untreated neurons (cerebral cortical cultures); assay: Survival of untreated neurons (naturally occurring death), cerebral cortical cultures; assay type: cell-based; conditions: untreated rat cerebral cortical cultures
Protocol: (a) Cerebral cortical cultures were prepared by a slight modification of the techniques described by Forsythe and Westbrook, (a. Physiol. Lond. 396:515 (1988)), in which cerebral cortex was used instead of hippocampus and newborn rats were utilized instead of E16 mice. After nine days growth in vitro, the cultures were given a complete change of medium and treated with serial dilutions of either peptide 1, 2 or 6 in order to determine whether these peptides were effective in protecting neurons from naturally occurring death. Cerebral cortical cells were counted as above, however, only 40 fields per plate were counted comprising an area of 20 mm^2.
(a) Cells were prepared as described in Example 6. After nine days growth in vitro, the cultures were given a complete change of medium and treated with serial dilutions of peptide 5 or of peptide 3 in the presence and in the absence of 10^-8 M of a VIP antagonist described in detail in U.S. Pat. No. 5,217,953. One treatment was given at the beginning of a five day test period. Cell counts were performed on 100 fields, with a total area of 50 mm^2. Neurons were counted without knowledge of treatment.

[2] = system: Neurons from rat cerebral cortex treated with β-amyloid peptide fragment 25-35; assay: Survival of neurons treated with fragment 25-35 of β-amyloid peptide
[3] = system: electrically blocked neurons (mouse spinal cord neurons); assay type: cell-based
VIP receptor = assay: Affinity studies: displacement of radiolabeled VIP on cerebral cortical astrocytes; assay type: binding
Protocol: (a) Cerebral cortical astrocytes were obtained and cultured as described before^16,17). Binding studies were performed on intact cells, 5-7 days after replating at 4° C. in phosphate buffered saline containing 0.1% bovine serum albumin. Cells were divided into two groups. Group 1 was incubated with varying concentrations of St-VIP and Group 2 was incubated with varying concentrations of St-Nle^17 -VIP. After 30 min. incubation with the VIP analogue, 50 pM of ^125 -VIP^(14) was added and incubated for an hour. The media was then removed and cells were washed three times by rapid addition and removal of 1 ml phosphate buffered saline at 4° C. The labeled cells were then dissolved in 0.2 N NaOH and transferred for radioactivity counting by an automatic gamma counter (Wallac 1470 Wizard).

[4] = system: learning and memory in AF64A-injected rats; assay: Morris water maze, AF64A animal model of Alzheimer, I.C.V. drug administration; assay type: in vivo, rat; conditions: 100 ng I.C.V. daily
Protocol: 13 Male rats were injected intracerebroventricularly (I.C.V.) at a rate of 0.21 μl/min, using plastic tubing (PE-20) attached to 25G needle. 5 rats serving as control received an injection of saline (2 μl/side), 8 other animals received injections of ethylcholine aziridium (AF64A) (3 nmol/2 μl/side). AF64A is an inducer of cholinergic hypofunctions which mimics some of the cholinergic hypofunction reported in Alzheimer's disease and is used for preparing animal models of Alzheimer^(22).
Animals were cannulated following injection to allow I.C.V. drug application and left to recover for a week. Learning and memory tests were conducted using the swim maze test. The 8 animals injected with AF64A were divided into two equal groups and were thereafter injected daily with either saline or 100 ng I.C.V. of St-Nle^17 -VIP. The five control rats (see above) were injected with saline. Following seven injection days, behavioral assays were conducted for an additional 14 days on both control and test animals. […]
(§1) Rats were placed in a circular pool, 1.26 m in diameter, 0.2 m deep, equipped with a clear plexiglas column, with a 13.3 cm platform reaching just below the surface of the water (22-24° C.). […] The latency of reaching the platform was recorded for each rat (in seconds) and the changes over days of training were graphed, which reflect learning and memory.

[5] = system: learning and memory in AF64A-treated rats; assay: Morris water maze, AF64A animal model of Alzheimer, nasal drug administration; assay type: in vivo, rat; conditions: daily nasal administration (St-Nle17-VIP 70 μg/40 μl; peptide 6 50 μg/40 μl)
Protocol: 8 Male rats were all treated with AF64A as described above. 10 days after AF64A administration 5 animals received daily nasal administration of St-Nle^17 -VIP dissolved in 10% sefsol and 40% isopropanol at a concentration of 70 μg/40 μl (20 μl administered through each nostril). 3 Animals received daily nasal administration of 50 μg/40 μI of peptide 6, (20 μl/nostril) dissolved in 10% sefsol and 40% isopropanol. 6 Control animals received daily nasal administration of 10% sefsol and 40% isopropanol at an amount of 40 μl/day (20 μl nostril). The animals were partially anesthetized by diethylether prior to nasal administration. Both control and test animals were daily treated with 50,000 units of durabiotic antibiotics to avoid infection. Following 7 days of nasal administration behavioral tests were conducted on both control and test animals for an additional 8 days. […]
as §1

[6] = system: learning and memory in old rats; assay: Learning and memory in old animals (water pool), nasal administration; assay type: in vivo, rat; conditions: rats aged 18-20 months, nasal 100 μg/40 μl/day
Protocol: 6 Male rats aged 18-20 months were divided into hvo groups. Group 1 received daily nasal administrations of St-Nle^17 -VIP dissolved in 10% sefsol at 40% isopropanol at a dose of 100 μg/40 μl/day (20 μl/nostril). Control animals were treated with daily nasal administration of 40 μl/day of 10% sefsol and 40% isopropanol (20 μl/nostril). The administration was carried out after partial anesthetization by diethylether. Animals were thus treated for 7-19 days and then were tested by placing them in a water pool as described above.

[7] = Biodistribution following intranasal administration of radioiodinated peptide; assay type: in vivo, rat; conditions: rats
Protocol: St-Nle^17 -VIP was labeled with radioactive iodine and 3×10^6cpn/2 μl/rat of the labeled substance were applied intranasally to 250-300 g rats. Animals were sacrificed 15 mins. following drug administration.
Radioactive tissue samples were then homogenized and subjected to centrifugation (5,400×g for 25 mins.). Supernatants were then subjected to HPLC analysis against St-Nle^17 -VIP as a marker. Elution was carried out using acetonitrile gradient at fraction 30. Samples were then weighed and monitored for radioactivity in a gamma counter. To assess for the integrity of the incorporated St-Nle^17 -VIP radioactive tissue, supernatants were subjected to HPLC analysis. Radioactive tissue samples were hornogenized, subjected to centrifugation and supernatnants analyzed by HPLC fractionation against St-Nle-VIP as a marker (eluting using an acetonitrile gradient at fraction 30).

Sprague Dawley rats [8] = assay: Single dose toxicity, orally administered; assay type: in vivo, rat
Description: The single dose toxicity of St-Nle^17 -VIP administered orally was investigated in 4 groups of six male and six female rats (Sprague Dawley (S.D.) strain, purchased from Levinstein, Yokneam, Israel.)

Sprague Dawley rats [9] = assay: Single dose toxicity, intravenously injected (tail vein); assay type: in vivo, rat
Description: The single dose toxicity of St-Nle^17 -VIP injected intravenously, in to the tail vein, was investigated in 4 groups of six male and six female rats (Sprague Dawley (S.D.) strain, purchased from Levinstein, Yokneam, Israel).

[10] = Stability of test material; assay type: physicochemical
[11] = Pharmacological experimentation: biologically active dose; assay type: in vivo; conditions: rat
Protocol: The logic of the dose design was as follows: pharmacological experimentation has shown that the biologically active dose is 7 μg per rat. The dose of 1000× the biologically active dose was chosen for this experiment.

Sprague Dawley rats [12] = assay: Repeated dose toxicity, topically applied, 13 weeks
[13] = displacement of radiolabeled VIP, intact astrocytes, 4° C.
[14] = i.v., 7 μg/rat + vehicle (group 3)
[15] = i.v., 7,000 μg/rat + vehicle (group 4)

Question: For “St-His-Ser-Asp-Gly-Ee-Phe-Thr-Asp-Ser-Tyr-Ser-Arg-Tyr-Arg-amide (stearyl-HSDGIFTDSYSRYR-NH2; not fully specified (residue 5); printed as St-His-Ser-Asp-Gly-Ee-Phe-Thr-Asp-Ser-Tyr-Ser-Arg-Tyr-Arg-amide) [peptide 1]”, which “concentrations protecting cells from naturally occurring death” value [1] is on record?
Answer: above 10^-8 M

Question: For “fragment 25-35 of β-amyloid peptide: β-amyloid peptide fragment comprising amino acids in positions 25 to 35, toxic to neurons in culture (GSNKGAIIGLM; Amyloid-beta protein 42; UniProt P05067 696-706, looked up, fragment) [reference compound]”, which “number of living neurons per tested area” value ([2]; 25 μM fragment alone, 150 without fragment) is on record?
Answer: 42 neurons

Question: For CCCC[C@H](NC(=O)[C@H](CCC(N)=O)NC(=O)[C@H](CCCCN)NC(=O)[C@H](CCCNC(=N)N)NC(=O)[C@H](CC(C)C)NC(=O)[C@H](CCCNC(=N)N)NC(=O)[C@@H](NC(=O)[C@H](Cc1ccc(O)cc1)NC(=O)[C@H](CC(N)=O)NC(=O)[C@H](CC(=O)O)NC(=O)[C@@H](NC(=O)[C@H](Cc1ccccc1)NC(=O)[C@@H](NC(=O)[C@H](C)NC(=O)[C@H](CC(=O)O)NC(=O)[C@H](CO)NC(=O)[C@@H](N)Cc1c[nH]cn1)C(C)C)[C@@H](C)O)[C@@H](C)O)C(=O)N[C@@H](C)C(=O)N[C@H](C(=O)N[C@@H](CCCCN)C(=O)N[C@@H](CCCCN)C(=O)N[C@@H](Cc1ccc(O)cc1)C(=O)N[C@@H](CC(C)C)C(=O)N[C@@H](CC(N)=O)C(=O)N[C@@H](CO)C(=O)N[C@H](C(=O)N[C@@H](CC(C)C)C(=O)N[C@@H](CC(N)=O)C(N)=O)[C@@H](C)CC)C(C)C [Nle^17 -VIP, Norleucine^17 -VIP], which “potency relative to native VIP in protecting electrically blocked cells from death” value [3] is on record?
Answer: about 10 fold

Question: With “Stearoyl-noricucine^17 -VIP [St-Nle^17 -VIP]” as the compound, how does the “potency relative to native VIP in protecting electrically blocked cells from death” value [3] read?
Answer: about 100 fold

Question: What about the “peak of active concentrations” value ([3]; 1 μM tetrodotoxin) of the same compound?
Answer: broadening of the peak of active concentrations

Question: What about the “affinity to the high affinity receptor relative to VIP” value (VIP receptor; VIP value from reference 19) of the same compound?
Answer: about 100 fold

Question: What about the “affinity relative to St-VIP, high concentration zone (low affinity zone)” value (VIP receptor; [13]) of the same compound?
Answer: 10 fold

Question: What about the “affinity relative to St-VIP, low concentration (high affinity) zone” value (VIP receptor; [13]) of the same compound?
Answer: 10 fold

Question: What about the “learning and memory (latency of reaching the platform)” value (from here on “learning and memory”) [4] of the same compound?
Answer: showed recovery of the learning and memory abilities, essentially similar to that of control animals

Question: And the “learning and memory” value [5]?
Answer: control animals (.quadrature.) show smaller improvement in the latency of reaching the platform

Question: And the “learning and memory” value [6]?
Answer: showed a greater improvement in the latency of reaching the platform over time as compared to control untreated animals

Question: What about the “distribution to brain after nasal administration” value ([7]; 15 mins. after intranasal administration) of the same compound?
Answer: able to reach the brain

Question: What about the “integrity of peptide in tissue (HPLC of radioactive supernatants)” value ([7]; intranasal) of the same compound?
Answer: reaches its target organs in an active, intact form

Question: And the “body weight gain and food consumption” value (Sprague Dawley rats [8]; oral single dose)?
Answer: normal body weight gain

Question: And the side effects (Sprague Dawley rats [8]; oral single dose)?
Answer: No necrotic reactions, or any other side effects were observed

Question: What about the mortality (Sprague Dawley rats [8]; oral single dose, up to 7000 μg/rat) of the same compound?
Answer: No mortality occurred

Question: And the “acute oral LD50” value (Sprague Dawley rats [8]; oral, rat)?
Answer: greater than 7000 μg/rat

Question: What about the “animals with necrotic reaction at the site of injection (tail skin)” value (Sprague Dawley rats [9]; [14]) of the same compound?
Answer: 58%

Question: And the mortality (Sprague Dawley rats [9]; [14])?
Answer: No mortality occurred in groups 1 and 3

Question: What about the “animals with necrotic reaction at the site of injection (tail skin)” value (Sprague Dawley rats [9]; [15]) of the same compound?
Answer: all the animals

Question: What about the mortality (Sprague Dawley rats [9]; [15]) of the same compound?
Answer: Seven rats (3 male and 4 female out of 12) died

Question: What about the “time of death after administration” value (Sprague Dawley rats [9]; [15]) of the same compound?
Answer: ≤ 3 h

Question: What about the “other side effects in surviving rats” value (Sprague Dawley rats [9]; i.v., all groups) of the same compound?
Answer: No other side effects were observed

Question: What about the “body weight gain versus vehicle control” value (Sprague Dawley rats [9]; i.v., two weeks study period) of the same compound?
Answer: increased weight gain

Question: And the “acute intravenous LD50, combined males and females” value (Sprague Dawley rats [9]; i.v., with vehicle, combined males and females)?
Answer: less than 7,000 μg

Question: What about the “acute intravenous LD50, males” value (Sprague Dawley rats [9]; i.v., with vehicle, male rats) of the same compound?
Answer: 7,000 μg/male rat

Question: And the “stability, powder” value [10]?
Answer: for a year

Question: What about the biologically active dose [11] of the same compound?
Answer: 7 μg per rat

Question: What about the “body weight gain or food consumption” value (Sprague Dawley rats [12]; topical daily) of the same compound?
Answer: No significant differences were detected

Question: What about the “clinical pathology (hematology, clinical chemistry)” value (Sprague Dawley rats [12]; topical daily) of the same compound?
Answer: No dose related or sex related biologically meaningful treatment effects were detected

Question: And the organ weight analysis (Sprague Dawley rats [12]; topical daily)?
Answer: No treatment related differences were noted

Question: And the adverse effects (Sprague Dawley rats [12]; topical daily for 13 weeks, 7, 700, 3500 μg)?
Answer: No dose related adverse effects were detected; also recorded: did not cause any serious adverse effects at any of the dosages tested

Question: And the mortality (Sprague Dawley rats [12]; topical daily, 7, 700, 3500 μg)?
Answer: No mortality associated with drug application was noted

Question: What about the “most effective protective concentration (peak activity) against β-amyloid associated death” value ([2]; 25 μM β-amyloid fragment 25-35) of the same compound?
Answer: 10^-13 M

Question: What about the “protection of neurons from β-amyloid peptide fragment toxicity” value ([2]; 25 μM β-amyloid fragment 25-35, 5 days) of the same compound?
Answer: able to protect neurons from the toxic effect of β-amyloid peptide fragment at all concentrations tested

Question: And the “concentrations protecting also against naturally occurring cell death” value ([2]; FIG. 7 experiment)?
Answer: 10^-10 M and 10^-9 M
